One data set has as its system humans. As to conditions: cited from earlier work.
The subject of a further data set is rhesus monkeys. As to conditions: cited from earlier work.
The conditions of data set [1]: humans, 1.5 mg/kg, cited from earlier work.
In another data set the test system is AVA. As to conditions: Pollock et al. 1996; cited from earlier work.
The subject of data set [2] is Sprague Dawley albino rats. Kind of data set: Anesthesia-induced hypothermia in rats, topical norepinephrine cream on tail, feet and ears (Example 2). Type of data set: in vivo, rat. As to the method:
This experiment was similar to the experiment of Example 1, although Sprague Dawley albino rats were used. […] The test cream composition was 10% Norepinephrine vasoactive substance, 10% penetration enhancer (propylene glycol), and 80% conventional base cream.
All rats were subjected to one hour pre-anesthesia time (t=−60 to t=0), one hour anesthesia (t=0 to t=60), and 4 hours post anesthesia (t=60 to t=300). The appropriate cream was applied to the tail, feet, and ears skin surface of each rat. There were four rats in each test/control group. Vasoconstrictor cream was applied to the test group rats 3 times, at t=−60, t=−30, and t=0 min before anesthesia. Core body temperature was measured rectally. Rat tail skin temperature was measured at around the mid-length of the tail by press touching the thermometer tip to the skin surface.

The test system of data set [3] is porcine carotid arteriovenous anastomoses. The conditions noted are these: porcine (De Vries et al. 1998); cited from earlier work.
A further data set deals with pigs. As to conditions: 6 wt.% epinephrine, 10 wt.% propylene glycol cream at t=-40 min and t=0; after 130 minutes; room 20° C.
The conditions of data set [4]: cited from earlier work.
In another data set the test system is Male Wistar rats. The source says: Although there are differences between the thermoregulatory system of rats and humans, the tails and feet pads of rats function as thermoregulatory organs in a similar fashion to human skin. The rat tail skin and feet pads are exposed and not covered by fur. By controlling the blood flow to the tail skin and feet pads, the rat controls some of its heat dissipation to the environment. Only about 30% of the rat heat loss is regulated by the tail—much less than the role of the skin in humans.
Male Wistar rats, each about 400 g mass, were divided into three groups: a control group (C) of 8 rats, a test first group (A) of 7 rats, and a third test group (B) of 5 rats. All rats had test composition applied to the tail skin and the feet pads. All experiments were conducted at 23° C. ambient room temperature. All groups went though an anesthesia period of one hour (t=0 is time of start of anesthesia), and a follow-up period of 3 hours after end of anesthesia. Core body temperature (CBT) and tail skin temperature of the rats was measured using a thermocouple-based digital thermometer with 0.1° C. sensitivity.
For test group A, the cream was identical to that used for the control group, except it contained 6 wt. % epinephrine, a vasoconstrictor. The cream for test group B was the same as that for group A, except that the cream contained 20 wt. % penetration enhancer.
The cream on both control group C and test group A was applied at two times: first, concomitantly with application of anesthesia (t=0), and again at 20 min into anesthesia (t=20 m=⅓ h). CBT and tail temperatures were measured at t=0, 20, 40, 60, 120, 180 and 240 minutes.
In test group (B), two changes were made to the experimental procedure. First, the concentration of penetration enhancer (propylene glycol) in the cream was doubled to 20 wt. %. Second, the time of first cream application was done at 30 min before anesthesia (t=−30 min) and the second cream application was given with initiation of administration of anesthetic (t=0).

In the next data set the test system is adult male Wistar rat. As to conditions: injection into the preoptic area of rat brain; cited from earlier work.
Where [5] appears, read: group B: 6 wt.% epinephrine, 20 wt.% propylene glycol.

The structures appear in SMILES notation.

Protocol for pigs: The same composition, but without the epinephrine, was prepared for use as a control. Five pigs, each weighing 55-65 kg, were divided into two groups, three in the experimental group and two in the control group. The cream was administered 40 minutes before the onset of anesthesia (t=−40 min) and again with the commencement of general anesthesia (t=0). The room temperature was 20° C., with +/−1° C. fluctuations due to the thermostat of the air conditioner. The pigs were not covered with anything other than the cream, with which there were covered over their entire skin surface. Core body temperature was measured at t=−40, 0, 30, 50, 70, 100 and 130 min.

For the compound `CNC(C)Cc1ccc2c(c1)OCO2` (centres unmarked) [MDMA, 3,4-methylenedioxymethamphetamine], the hyperthermic response entry in the data set on humans (humans, all doses tested (up to 2.0 mg/kg), laboratory conditions (Liechti 2000)) is reported as “little or no hyperthermic response”. In addition, in the data set with humans (recreational users, single exposure (Freedman et al. 2005)), the “effect on core body temperature at different ambient temperatures” value is reported as “produced hyperthermia regardless of ambient temperature”. In the data set on rhesus monkeys (monkeys, after intravenous injection), the “time to flat peak of thermoregulatory disruption effect” value is “about 90 minutes”. Besides, the “duration of flat peak of thermoregulatory disruption effect” value in the data set with rhesus monkeys (monkeys, intravenous injection) is given as “about 3 hours”. Besides, the “hyperthermic rise compared to control” value with rhesus monkeys (rhesus monkeys, ambient temperature up to 31° C. (Banks et al. 2007)) was at most 1 °C. In addition, the “time of peak plasma concentration after oral administration” value in [1] is given as “about two”. For the same compound, the “peak plasma concentration (average)” value in data set [1] (oral) was 0.331 ng/mL.
Turning to `NC[C@H](O)c1ccc(O)c(O)c1` [Norepinephrine, Norepinephrine Bitartrate], in the data set with AVA, the “effect on AVA” value is recorded as “produced AVA vasoconstriction”. Also, the “start of difference in core body temperature, time into anesthesia” value in [2] (10% norepinephrine cream) is reported as “about 20 min”. The “reversal of core and tail temperatures versus control” value in data set [2] (10% norepinephrine cream, at about 90 min post anesthesia) was “the control group temperature goes above the test group temperature”. Also, the “start of pronounced vasoconstrictor action after first application of cream” value in [2] (10% norepinephrine cream, from skin and core temperature) was “about 80 min”. In addition, in data set [2] (10% norepinephrine, 10% propylene glycol cream applied t=-60, -30, 0 min, remaining anesthesia period and 60 min post anesthesia), the “test group core body temperature higher than control group” value is 1-1.5 °C.
`Brc1c(NC2=NCCN2)ccc2nccnc12` [UK-14304, 5-bromo-N-(4,5-dihydro-1H-imidazol-2-yl)-6-quinoxalinamine]: the “effect on AVA” value in the data set on AVA is reported as “produced constriction of the AVA”.
Turning to `c1ccc2c(c1)CC[C@H](CNCCCNC1=NCCCN1)O2` [alniditan], in data set [3], the “constriction of carotid arteriovenous anastomoses” value is given as “potently constrict”.
Regarding `CNC[C@H](O)c1ccc(O)c(O)c1` [epinephrine], in the data set on pigs, the “average decrease in CBT” value was 0.7 °C. Also, in data set [4] (topical), the “time after which activity diminishes significantly” value is 3 h and the “time to initial vasoconstrictor action after application” value is at most 20 min. For the same compound, in the data set on Male Wistar rats (6% Epinephrine cream of Example 1), the “response time of vasoconstrictor action” value lay within 20 to 30 min. In addition, the “duration of effect of vasoconstrictor application on CBT after anesthesia” value in the data set with Male Wistar rats (group A: 6 wt.% epinephrine, 10 wt.% propylene glycol) is on record as “at least 3 hours”. The “tail temperature versus control group” value with Male Wistar rats (group A: 6 wt.% epinephrine, 10 wt.% propylene glycol, 20 minutes into the experiment) is recorded as “higher in the control group than in group A”. Further, the “difference in CBT between test and control group” value in the data set with Male Wistar rats (group A: 6 wt.% epinephrine, 10 wt.% propylene glycol, after 40 minutes through the remainder of the experiment (240 min)) is listed as “one”. The “difference in CBT between groups A and C” value with Male Wistar rats (group A: cream with 6 wt.% epinephrine, 10 wt.% propylene glycol, applied t=0 and 20 min, first 40 minutes, 23° C. ambient) is recorded as “no significant difference”. Further, in the data set on Male Wistar rats (setting [5]), the “time after which test group temperature rapidly falls off” value is listed as 2 h and the “time from anesthesia within which the CBT difference is established” value is at most 20 min. Also, the “difference in CBT versus control group C” value with Male Wistar rats (group B: 6 wt.% epinephrine, 20 wt.% propylene glycol, applied t=-30 min and t=0, maintained throughout anesthesia (t=60 m)) is 2 °C.
With `COc1ccc(OC)c(C(O)C(C)N)c1` (centres unmarked) [methoxamine], the “effect on body temperature” value with adult male Wistar rat is reported as “resulted in hypothermia”.
`CNC[C@H](O)c1cccc(O)c1` [phenylephrine]: the “effect on AVA” value in the data set on AVA was “produced AVA constriction”. Also, the “time after application at which vasoconstricting effect begins” value in [4] (topical / dermal) is on record as “about 3 hours”.
Take `CNS(=O)(=O)Cc1ccc2[nH]cc(CCN(C)C)c2c1` [sumatriptan]: the “constriction of carotid arteriovenous anastomoses” value in data set [3] is reported as “potently constrict”.

The values are drawn from patent publication US20110144209A1, “USE OF VASOCONSTRICTORS” (priority 2008, published 2011).
